pIC50: −log10 of the molar value. Counter-ions that a name gives are not always drawn.
target: ROCK2 (Homo sapiens (Human), UniProt O75116); assay: biochemical
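Also: rho kinase enzyme reaction halted with EDTA, phospho- and non-phospho peptide separated for read-out, kinase activity inhibition derived across a dose-response series, DMSO under 2%.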

Chain of ROCK2 (O75116 whole entry, species assumed): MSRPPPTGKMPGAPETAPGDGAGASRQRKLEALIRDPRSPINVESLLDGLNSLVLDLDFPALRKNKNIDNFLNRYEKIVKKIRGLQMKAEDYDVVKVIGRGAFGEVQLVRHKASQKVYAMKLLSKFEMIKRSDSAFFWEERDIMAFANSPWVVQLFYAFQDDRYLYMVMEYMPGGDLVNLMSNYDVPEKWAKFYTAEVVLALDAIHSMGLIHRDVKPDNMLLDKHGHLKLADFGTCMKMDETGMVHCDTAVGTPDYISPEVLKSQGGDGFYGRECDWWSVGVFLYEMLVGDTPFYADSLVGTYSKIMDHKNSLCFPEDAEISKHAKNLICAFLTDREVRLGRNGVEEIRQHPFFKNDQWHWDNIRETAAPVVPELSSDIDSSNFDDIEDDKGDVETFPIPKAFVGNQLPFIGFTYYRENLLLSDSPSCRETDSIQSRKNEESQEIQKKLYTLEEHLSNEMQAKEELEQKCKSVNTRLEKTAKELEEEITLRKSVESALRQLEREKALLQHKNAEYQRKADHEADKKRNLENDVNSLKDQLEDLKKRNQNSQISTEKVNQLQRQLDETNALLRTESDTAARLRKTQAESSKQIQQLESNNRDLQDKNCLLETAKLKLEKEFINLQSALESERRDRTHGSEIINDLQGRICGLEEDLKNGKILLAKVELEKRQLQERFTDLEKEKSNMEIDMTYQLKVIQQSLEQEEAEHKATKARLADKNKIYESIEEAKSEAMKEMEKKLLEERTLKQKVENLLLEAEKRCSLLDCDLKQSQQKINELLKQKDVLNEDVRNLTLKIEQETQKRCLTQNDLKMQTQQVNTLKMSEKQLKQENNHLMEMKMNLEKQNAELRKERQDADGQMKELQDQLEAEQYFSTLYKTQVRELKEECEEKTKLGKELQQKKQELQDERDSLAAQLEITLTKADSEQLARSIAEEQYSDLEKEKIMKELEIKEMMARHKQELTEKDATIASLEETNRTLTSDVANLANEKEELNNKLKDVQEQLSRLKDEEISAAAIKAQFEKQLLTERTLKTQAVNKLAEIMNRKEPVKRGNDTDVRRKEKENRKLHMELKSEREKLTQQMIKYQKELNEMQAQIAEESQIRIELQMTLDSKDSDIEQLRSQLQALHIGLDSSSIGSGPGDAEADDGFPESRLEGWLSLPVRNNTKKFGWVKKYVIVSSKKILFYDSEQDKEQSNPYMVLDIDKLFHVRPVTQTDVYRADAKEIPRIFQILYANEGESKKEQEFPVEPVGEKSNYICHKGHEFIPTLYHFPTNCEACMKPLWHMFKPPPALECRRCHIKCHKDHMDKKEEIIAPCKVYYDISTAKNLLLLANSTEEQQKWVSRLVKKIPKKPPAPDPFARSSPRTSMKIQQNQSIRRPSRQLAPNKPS

Q: `COc1nc(N2CCC(Nc3cccc(NC(C)=O)c3)C2=O)ccc1-c1cn[nH]c1` (racemic) [Example 260, N-(3-((1-(6-methoxy-5-(1H-pyrazol-4-yl)pyridin-2-yl)-2-oxopyrrolidin-3-yl)amino)phenyl)acetamide] was tested. Which pIC50 did it give?
A: > 8.00

Q: With `COc1cccc2c1N(C1CCN(c3ccc(-c4cn[nH]c4)cc3)C1=O)CC2` (single isomer, unassigned) [Example 51, l-(4-(1H-pyrazol-4-yl)phenyl)-3-(7-methoxyindolin-1-yl)pyrrolidin-2-one] as the compound, how does the pIC50 read?
A: 7.00 to 8.00

Q: With `COc1cc(F)cc(NC2CCN(c3cc(F)c(-c4cn[nH]c4)cc3F)C2=O)c1` (single isomer, unassigned) [Example 351, 1-(2,5-difluoro-4-(1H-pyrazol-4-yl)phenyl)-3-((3-fluoro-5-methoxyphenyl)amino)pyrrolidin-2-one] as the compound, how does the pIC50 read?
A: 7.00 to 8.00

Q: `COc1ccc(F)c(NC2CCN(c3ccc(-c4cn[nH]c4)c(OC)c3)C2=O)c1` (single isomer, unassigned) [Example 147, 3-((2-fluoro-5-methoxyphenyl)amino)-1-(3-methoxy-4-(1H-pyrazol-4-yl)phenyl) pyrrolidin-2-one] was tested. Which pIC50 did it give?
A: 7.00 to 8.00

Q: How did the pIC50 turn out when `COc1cccc(NC2CCN(c3ncc(-c4cn[nH]c4)c(OC)n3)C2=O)c1` (centres unmarked) [Example 132, 1-(4-Methoxy-5-(1H-pyrazol-4-yl)pyrimidin-2-yl)-3-((3-methoxyphenyl)amino) pyrrolidin-2-one] was run?
A: 7.00 to 8.00

Q: With `COc1nc(N2CCC(N3CCOCC3)C2=O)ccc1-c1cn[nH]c1` (racemic) [Example 273, 1-(6-methoxy-5-(1H-pyrazol-4-yl)pyridin-2-yl)-3-morpholinopyrrolidin-2-one] as the compound, how does the pIC50 read?
A: 7.00 to 8.00

Q: With `COc1cccc(NC2CCN(c3ccc(-c4ccnc5[nH]ccc45)c(OC)n3)C2=O)c1` (racemic) [Example 128, 1-(6-methoxy-5-(1H-pyrrolo[2,3-b]pyridin-4-yl)pyridin-2-yl)-3-((3-methoxyphenyl)amino) pyrrolidin-2-one] as the compound, how does the pIC50 read?
A: 7.00 to 8.00

Q: `COCc1cc(N2CCC(Nc3cccc(OC)c3)C2=O)ccc1-c1cn[nH]c1` (single isomer, unassigned) [Example 184, 1-(3-(methoxymethyl)-4-(1H-pyrazol-4-yl)phenyl)-3-((3-methoxyphenyl)amino) pyrrolidin-2-one] was tested. Which pIC50 did it give?
A: 7.00 to 8.00

Q: With `COc1nc(N2CCC(Nc3cccc(OCC4CC4)c3)C2=O)ccc1-c1cn[nH]c1` (single isomer, unassigned) [Example 214, 3-((3-(cyclopropylmethoxy)phenyl)amino)-1-(6-methoxy-5-(1H-pyrazol-4-yl)pyridin-2-yl)pyrrolidin-2-one] as the compound, how does the pIC50 read?
A: > 8.00

Q: `O=C1C(Cc2cccc(F)c2)CCN1c1ccc(-c2cn[nH]c2)cc1` (centres unmarked) [Example 91, 1-(4-(1H-pyrazol-4-yl)phenyl)-3-(3-fluorobenzyl)pyrrolidin-2-one] was tested. Which pIC50 did it give?
A: 5.66 to 7.00

Q: `O=C1C(Nc2cccc(F)c2)CCN1c1ccc(-c2cn[nH]c2)c(F)c1` (single isomer, unassigned) [Example 47, 1-(3-fluoro-4-(1H-pyrazol-4-yl)phenyl)-3-((3-fluorophenyl)amino)pyrrolidin-2-one] was tested. Which pIC50 did it give?
A: > 8.00

Q: With `O=C1C(Nc2cccc(OCC3CC3)c2)CCN1c1ccc(-c2cn[nH]c2)cn1` (single isomer, unassigned) [Example 320, 1-(5-(1H-pyrazol-4-yl)pyridin-2-yl)-3-((3-(cyclopropylmethoxy)phenyl)amino) pyrrolidin-2-one] as the compound, how does the pIC50 read?
A: 5.66 to 7.00

Q: `COc1ccc(N2CCN(C3CCN(c4ccc(-c5cn[nH]c5)c(OC)n4)C3=O)CC2)cc1` (racemic) [Example 287, 1-(6-methoxy-5-(1H-pyrazol-4-yl)pyridin-2-yl)-3-(4-(4-methoxyphenyl)piperazin-1-yl)pyrrolidin-2-one dihydrochloride] was tested. Which pIC50 did it give?
A: 5.66 to 7.00

Q: How did the pIC50 turn out when `COc1cc(NC2CCN(c3cc(C)c(-c4cn[nH]c4)cn3)C2=O)ccc1F` (single isomer, unassigned) [Example 209, 3-((4-fluoro-3-methoxyphenyl)amino)-1-(4-methyl-5-(1H-pyrazol-4-yl)pyridin-2-yl)pyrrolidin-2-one] was run?
A: 5.66 to 7.00

Q: With `COc1cc(NC2CCN(c3cc(F)c(-c4cn[nH]c4)cc3F)C2=O)ccc1F` (single isomer, unassigned) [Example 350, 1-(2,5-difluoro-4-(1H-pyrazol-4-yl)phenyl)-3-((4-fluoro-3-methoxyphenyl)amino)pyrrolidin-2-one] as the compound, how does the pIC50 read?
A: 5.66 to 7.00

Q: With `COc1c(F)cccc1NC1CCN(c2ccc(-c3cn[nH]c3)cc2)C1=O` (centres unmarked) [Example 1, 1-(4-(1H-Pyrazol-4-yl)phenyl)-3-((3-fluoro-2-methoxyphenyl)amino)pyrrolidin-2-one] as the compound, how does the pIC50 read?
A: > 8.00

Q: `COc1cccc(NC2CCN(c3ccc(-c4cn[nH]c4)c(F)c3F)C2=O)c1` (single isomer, unassigned) [Example 305, 1-(2,3-difluoro-4-(1H-pyrazol-4-yl)phenyl)-3-((3-methoxyphenyl)amino) pyrrolidin-2-one] was tested. Which pIC50 did it give?
A: 7.00 to 8.00

Q: How did the pIC50 turn out when `O=C1C(Nc2cccc(OCC3CC3)c2)CCN1c1ccc(-c2cn[nH]c2)c(F)c1` (single isomer, unassigned) [Example 361, 3-((3-(cyclopropylmethoxy)phenyl)amino)-1-(3-fluoro-4-(1H-pyrazol-4-yl)phenyl)pyrrolidin-2-one] was run?
A: > 8.00

Q: How did the pIC50 turn out when `COc1cccc(N(C)C2CCN(c3ccc(-c4cn[nH]c4)cc3)C2=O)c1` (single isomer, unassigned) [Example 31, 1-(4-(1H-pyrazol-4-yl)phenyl)-3-((3-methoxyphenyl)(methyl)amino)pyrrolidin-2-one] was run?
A: 5.66 to 7.00

Q: `COc1cc(N2CCC(Nc3cccc(F)c3)C2=O)ccc1-c1cn[nH]c1` (centres unmarked) [Example 72, 3-((3-fluorophenyl)amino)-1-(3-methoxy-4-(1H-pyrazol-4-yl)phenyl)pyrrolidin-2-one] was tested. Which pIC50 did it give?
A: > 8.00

Q: With `CCc1nc(N2CCC(Nc3ccc(F)c(OCC4CC4)c3)C2=O)ccc1-c1cn[nH]c1` (single isomer, unassigned) [Example 212, 3-((3-(cyclopropylmelhoxy)-4-fluorophenyl)amino)-1-(6-ethyl-5-(1H-pyrazol-4-yl)pyridin-2-yl)pyrrolidin-2-one] as the compound, how does the pIC50 read?
A: 5.66 to 7.00

Q: `COc1nc(N2CCC(N3CCC(N(C)C)CC3)C2=O)ccc1-c1cn[nH]c1` (racemic) [Example 276, 3-(4-(dimethylamino)piperidin-1-yl)-1-(6-methoxy-5-(1H-pyrazol-4-yl)pyridin-2-yl)pyrrolidin-2-one] was tested. Which pIC50 did it give?
A: 5.66 to 7.00

Q: How did the pIC50 turn out when `COc1cc(F)cc(OC2CCN(c3ccc(-c4cn[nH]c4)cc3)C2=O)c1` (centres unmarked) [Example 112, 1-(4-(1H-pyrazol-4-yl)phenyl)-3-(3-fluoro-5-methoxyphenoxy)pyrrolidin-2-one] was run?
A: 5.66 to 7.00

Q: How did the pIC50 turn out when `COc1cccc(NC2CCN(c3ccc(-c4cn[nH]c4)c(C(N)=O)c3)C2=O)c1` (single isomer, unassigned) [Example 130, 5-(3-((3-Methoxyphenyl)amino)-2-oxopyrrolidin-1-yl)-2-(1H-pyrazol-4-yl)benzamide] was run?
A: 5.66 to 7.00

Q: With `COc1cc(NC2CCN(c3ccc(-c4cn[nH]c4)cn3)C2=O)ccc1F` (single isomer, unassigned) [Example 83, 1-(5-(1H-pyrazol-4-yl)pyridin-2-yl)-3-((4-fluoro-3-methoxyphenyl)amino)pyrrolidin-2-one] as the compound, how does the pIC50 read?
A: 7.00 to 8.00

Q: `COc1c(F)cccc1NC1CCN(c2ccc(-c3cn[nH]c3)c(C#N)c2)C1=O` (single isomer, unassigned) [Example 376, 5-(3-((3-fluoro-2-methoxyphenyl)amino)-2-oxopyrrolidin-1-yl)-2-(1H-pyrazol-4-yl)benzonitrile] was tested. Which pIC50 did it give?
A: 5.66 to 7.00

Source: patent publication US10112929B2, “Lactams as inhibitors of rock” (BRISTOL-MYERS SQUIBB COMPANY, priority 2015, dated 2018)
